Assays:
[1] = test system: RWPE; experiment: In vitro anti-cancer efficacy study of CTC-96, ATCC recommended growth condition (protocol GP687), cell viability and proliferation assay (RFU); format: cell-based
Method: (§1) B. In Vitro Anti-Cancer Efficacy Study of CTC-96 in Cell Lines Maintained in ATCC Recommended Growth Condition Using Approved Protocol GP687
(§2) For example in FIG. 2C, on day 2 with 20 μg/mL CTC-96. […] This difference among the cell lines was quite consistent at all initial seeding densities except for the highest (100%). At the three lower density seedings, the decrease in relative fluorescence units (RFU) was in a near linear relationship with increase of CTC-96 dose for LNCaP and RWPE cells. Both cell types began to show a response to CTC-96 at 5 μg/mL. (see FIGS. 2 C and D).
(§3) When cell proliferation data were obtained for all time points, the RFU reading on day 3 was considerably lower than the projected trend line as shown in FIG. 1. The possible cause was the variation in the incubation time as described in GP687 9.5.2.3. […] Due to time constraints, the incubation time carried out was shorter on day three than for the […]. The longer the incubation time, the greater the RFLI measured. Therefore, day 3 incubation data were not included in the analysis, see FIG. 2. […] Different cell density seedings allowed this study to maximally evaluate the anticancer efficacy of CTC-96. In vitro anticancer effectiveness can be categorized into: killing and inhibiting effects. High density seeding provides maximal numbers of cells to reveal the killing effect, which leads to extensive cell death with quick onset. Also high cell density sometimes provides some protection against cytotoxic effects. Low density seeding reduces the effects of contact inhibition in non-malignant cell lines and allows longer incubation with the drug. The longer treatment time allows observation of maximum inhibitory drug effects. In addition, low density cell seeding allows untreated cells to undergo several cell divisions.
(§4) In this study, four seeding densities of 100%, 50%, 25% and 12.5% were planned for each cell line.

[2] = test system: IMR; experiment: as above; format: cell-based; details: day 2, 20 μg/mL CTC-96, FIG. 2C, ATCC recommended medium
Method: as §1, §2, §3, §4

[3] = test system: Malme-3M; experiment: as above; format: cell-based, human; details: day 2, 20 μg/mL CTC-96, FIG. 2C, ATCC recommended medium
Method: as §1, §2, §3, §4

[4] = test system: LNCaP; experiment: as above; format: cell-based, human
Method: as §1, §2, §3, §4

[5] = test system: Malme-3M; experiment: CTC-96 7-day treatment in RPMI1640/2% FBS (GP689 modified) and confirmation study, cell viability and proliferation assay; format: cell-based, human
Method: (§5) The study was performed as described in GP689 with modifications as follows:
(§6) The cell growth and test media was RPM11640/2% FBS. All cell lines were acclimated in this low-serum condition for about two weeks prior to treatment with CTC-96. CTC-96 treatment was extended to 7 days from the 3 days previously used. Cell viability and proliferation was measured and medium was changed on day 0, 2, 4 and 7. Fresh CTC-96 added during every medium change. Incubation for cell viability and proliferation assay was performed for 2 hours.
(§7) A new batch of all four test cell lines were acclimated in RPMII 640/2% FBS about 10 days prior to CTC-96 treatment. CTC-96 treatment started after […] of adaptation. A 96-well plate was used at the at the start of proliferation in an attempt to eliminate the peeling of LNCaP monolayers. A manual multichannel pipette was utilized to change medium on day 0. Peeling still occurred in one plate. That plate was arbitrarily assigned the last time point day 7 in order to have good plates of LNCaP for the first three time points in a row.
(§8) For medium changes on days 2, 4 and 7, only half of the media was replaced to completely eliminate the peeling in LNCaP. This method was utilized for the other three cell lines in order to keep the entire test system consistent for all the cell lines. The replacement media contained 1×CTC-96 concentrations and therefore only half of CTC-96 was freshly replaced. Incubation for cell viability and proliferation assay was performed for strictly 2 hours. Allover proliferation was good for all cell lines (see FIG. 6). Untreated ENCaP cells became 100% confluent in all seeding conditions on day 7. […] 4.2.5.2.1.3. The day 4 RFU reading was chosen in the proliferation percentage analysis because the peeling off in LNCaP Day 7 plate led to decrease on RFU so much that the trendline of untreated cells turned downwards instead of plateauing in high density seeding, (see FIG. 6 Al 3). Decay of CTC-96 may occur over 7 days period and inhibition might be lowered towards the end of treatment. The upward turn of the trendline for malignant cell lines in 5 μg/mL may indicate this decay, (see FIG. 6 A2-3, CI-4). Malignant cell lines were more sensitive to CTC-96 than their sister normal cell lines.

[6] = test system: LNCaP; experiment: as above; format: cell-based, human
Method: as §5, §6, §7, §8

[7] = test system: RWPE-1; experiment: as above; format: cell-based
Method: as §5, §6, §7, §8

[8] = test system: IMR 90; experiment: as above; format: cell-based
Method: as §5, §6, §7, §8

[9] = 20 μg/mL CTC-96, day 2 vs day 0
[10] = FIGS. 2C and D, lower density seedings
[11] = day 2, 20 μg/mL CTC-96, FIG. 2C, ATCC recommended medium

CC(/C=C(/C)[O-])=NCCN=C(C)/C=C(/C)[O-].Cc1ncc[nH]1.Cc1ncc[nH]1.[Br-].[Co+3] [CTC-96]
killing effect (net cell loss) [1, 9]: lower number of cell on day 2 than on day 0 | concentration at which cells began to show a response [1, 10]: 5 µg/mL | total cells in comparison to untreated controls [1, 11]: 10% | total cells in comparison to untreated controls [2]: 72% | total cells in comparison to untreated controls [3]: 70% | killing effect (net cell loss) [4, 9]: lower number of cell on day 2 than on day 0 | concentration at which cells began to show a response [4, 10]: 5 µg/mL | total cells in comparison to untreated controls [4, 11]: 12% | proliferation ([5]; Malme 3M, 1 μg/mL): ceases proliferating | cell elimination / proliferation ([5]; Malme 3M, 5 μg/mL drug concentration): not killed, but stopped proliferating | cell number relative to originally seeded ([5]; Malme-3M, 5 μg/mL CTC-96, RPMI1640/2% FBS, 7-day treatment, FIG. 4C): almost no change, or even had fewer cells than originally seeded | inhibition (proliferation percentage, day 4 RFU) ([5]; Malme-3M, 5 μg/mL, confirmation study, FIG. 7): greater inhibition | cell number relative to originally seeded ([6]; 5 μg/mL CTC-96, RPMI1640/2% FBS, 7-day treatment, FIG. 4A): almost no change, or even had fewer cells than originally seeded | inhibition (proliferation percentage, day 4 RFU) ([6]; 5 μg/mL, confirmation study, FIG. 7): greater inhibition | proliferation ([6]; 25% cell density, 5 t μm/mL): proliferation completely ceases | proliferation diminished ([6]; 50% cell density, 5 μm/mL CTC-96, RPMI 1640/2% FBS): 30-40% | decrease in cell number compared to un-treated controls ([6]; initial seeding densities of 50% and 25%, 5 μm/mL CTC-96): 30-50% | proliferation ([7]; RWPE, 10 μg/mL CTC-96, RPMI1640/2% FBS, 7-day treatment): inhibited the proliferation | inhibition (proliferation percentage, day 4 RFU) ([7]; RWPE, 10 μg/mL, confirmation study, FIG. 7): lower degree of inhibition | proliferation ([7]; RWPE-1, 25% cell density, 5 t μm/mL): still proceeds proliferating, albeit, at a reduced rate | proliferation ([7]; RWPE-1, 50% cell density, same drug concentration (5 μm/mL)): minimally affected | cell elimination (cell loss) ([7]; RWPF-1 (non-malignant counterpart), seeding densities 50% and 25%, concentration that killed the malignant cell line): no cell loss | proliferation ([8]; IMR 90, 5 μg/mL): continues proliferating | proliferation ([8]; IMR, 10 μg/mL CTC-96, RPMI1640/2% FBS, 7-day treatment): inhibited the proliferation | inhibition (proliferation percentage, day 4 RFU) ([8]; IMR, 10 μg/mL, confirmation study, FIG. 7): lower degree of inhibition

— patent publication US20130116224A1, “Method and Composition for Treatment of Tumors” (priority 2010, published 2013)
